{
  "source": "patent US20190364896A1",
  "about": "“SYNERGISTIC WEED CONTROL FROM APPLICATIONS OF PYRIDINE CARBOXYLIC ACID HERBICIDES AND ALS INHIBITORS” (Dow AgroSciences LLC, priority 2014, published 2019)",
  "key": {"[1]": {"tested_on": "blackgrass (Alopecurus myosuroides, ALOMY)", "test": "Postemergence herbicidal activity, greenhouse trial (visual injury 0-100%)", "format": "in vivo", "method_in_brief": "(§1)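 Read-out is a visual 0–100% injury score against solvent-blank-sprayed controls, taken 20-22 d after treatment; expected mixture effects came from Colby's equation. Two-way combinations in 1.5% v/v crop oil concentrate were sprayed at 187 L/ha onto plants at the second or third true leaf stage.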"}, "[2]": {"tested_on": "grain sorghum (Sorghum vulgare, SORVU)", "test": "Postemergence herbicidal activity, greenhouse trial (visual injury 0-100%)", "format": "in vivo", "method_in_brief": "as §1"}},
  "note": "Values joined by “and” are separate entries in the source; they are usually repeats but may differ in a detail not shown here. Equal values may be shown once.",
  "data": [
    {"compound": "Nc1c(F)c(-c2ccc3cc[nH]c3c2F)nc(C(=O)O)c1Cl", "note": "[Compound 1]", "values": [
      {"measurement": "% visual injury Obs", "setting": "[1]; 5 g ae/ha", "value": 0, "unit": "%"},
      {"measurement": "% visual injury Obs", "setting": "[1]; 10 g ae/ha", "value": 0, "unit": "%"},
      {"measurement": "% visual injury Obs", "setting": "[1]; ALOMY, Compound 1 5 g ae/ha", "value": 0, "unit": "%"},
      {"measurement": "% visual injury Obs", "setting": "[1]; ALOMY, Compound 1 10 g ae/ha", "value": 0, "unit": "%"},
      {"measurement": "% visual injury Obs", "setting": "[2]; 5 g ae/ha", "value": "10% and 0%"},
      {"measurement": "% visual injury Obs", "setting": "[2]; 10 g ae/ha", "value": 50, "unit": "%"},
      {"measurement": "% visual injury Obs", "setting": "[2]; SORVU, Compound 1 5 g ae/ha", "value": "0% and 10%"},
      {"measurement": "% visual injury Obs", "setting": "[2]; SORVU, Compound 1 10 g ae/ha", "value": 50, "unit": "%"}
    ]}
  ]
}
